Laboratory results published in PubChem BioAssay AID2321 (Johns Hopkins Ion Channel Center, 2010).
The source made the active and inactive calls. How the calls were made is not given here.

Each compound was assayed against Voltage-gated inwardly rectifying potassium channel KCNH2 (Homo sapiens) (UniProt Q12809) (assay: hERG current rescue from dofetilide block, late-stage follow-up, orthogonal assay, cell-based, manual patch clamp, HEK293-hERG (AID 2321)). Details: at 10 µM, active compounds read high.
Sequence of Voltage-gated inwardly rectifying potassium channel KCNH2 (Homo sapiens) (Q12809 whole entry, looked up): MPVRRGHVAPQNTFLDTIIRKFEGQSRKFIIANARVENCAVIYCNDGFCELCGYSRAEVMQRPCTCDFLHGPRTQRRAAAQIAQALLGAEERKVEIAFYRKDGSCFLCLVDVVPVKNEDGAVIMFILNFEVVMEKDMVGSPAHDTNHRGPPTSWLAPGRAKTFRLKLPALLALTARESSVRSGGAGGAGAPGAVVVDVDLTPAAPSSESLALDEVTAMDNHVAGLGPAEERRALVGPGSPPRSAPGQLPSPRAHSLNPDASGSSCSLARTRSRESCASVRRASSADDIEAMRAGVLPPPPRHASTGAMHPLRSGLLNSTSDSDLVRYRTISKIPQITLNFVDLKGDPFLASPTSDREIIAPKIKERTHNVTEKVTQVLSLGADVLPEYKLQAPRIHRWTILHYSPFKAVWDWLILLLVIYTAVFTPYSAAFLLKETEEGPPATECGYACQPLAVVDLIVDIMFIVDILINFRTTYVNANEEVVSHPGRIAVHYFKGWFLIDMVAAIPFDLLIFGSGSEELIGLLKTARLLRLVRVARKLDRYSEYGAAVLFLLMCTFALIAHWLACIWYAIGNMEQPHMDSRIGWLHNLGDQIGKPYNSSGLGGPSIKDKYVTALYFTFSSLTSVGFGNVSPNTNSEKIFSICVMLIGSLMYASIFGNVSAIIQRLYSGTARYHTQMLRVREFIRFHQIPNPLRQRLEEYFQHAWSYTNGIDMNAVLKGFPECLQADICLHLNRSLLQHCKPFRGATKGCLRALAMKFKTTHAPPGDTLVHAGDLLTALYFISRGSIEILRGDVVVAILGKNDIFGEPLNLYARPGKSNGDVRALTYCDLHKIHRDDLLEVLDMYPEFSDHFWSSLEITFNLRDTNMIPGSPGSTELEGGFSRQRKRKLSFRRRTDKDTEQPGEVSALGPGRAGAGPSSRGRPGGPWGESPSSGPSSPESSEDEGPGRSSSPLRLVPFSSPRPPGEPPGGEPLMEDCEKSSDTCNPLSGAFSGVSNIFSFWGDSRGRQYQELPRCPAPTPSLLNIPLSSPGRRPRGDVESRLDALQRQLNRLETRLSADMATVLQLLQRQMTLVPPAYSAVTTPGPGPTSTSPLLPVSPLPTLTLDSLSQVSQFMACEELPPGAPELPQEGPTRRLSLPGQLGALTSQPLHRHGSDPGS

Row | SMILES | percent unblocked
1 | Cc1ccc(C(=O)Nc2nc3ccccc3c(=O)s2)cc1 | 0% (inactive)
2 | COc1ccc(OC)c(NC(=S)NC(=O)c2ccc(Br)o2)c1 | 0% (inactive)
3 | O=C(O)c1cc(Cl)ccc1Nc1nc2cc(Cl)ccc2o1 | 0% (inactive)
4 | CN(c1ccccc1)c1nc2cc(Cl)ccc2o1 | 0% (inactive)
5 | COc1ccccc1NC(=S)NC(=O)c1ccc(-c2ccc(Cl)cc2)o1 | 0% (inactive)
6 | O=C(O)c1ccc(Nc2nc3cc(Cl)ccc3o2)cc1 | 0% (inactive)
7 | Clc1ccc2oc(Nc3ccccn3)nc2c1 | 0% (inactive)
8 | O=C(COc1ccc2ccccc2c1Br)Nc1cccnc1 | 0% (inactive)
9 | O=C(O)c1ccccc1Nc1nc2cc(Cl)ccc2o1 | 0% (inactive)
